In PubChem BioAssay AID1918939 (Molecular Pharmacology Branch, DTP, NCI, 2023):
Values joined by “and” are separate entries in the source; they are usually repeats but may differ in a detail not shown here. Identical values can stand only once.

Tested on: 653999-131-R-J2-PDC complex spheroid viability
Test: Anticancer human tumor 653999-131-R-J2-PDC patient-derived lung adenocarcinoma cell line growth inhibition
Settings: for viability, T/C: stronger effect = lower value
Outline: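 Complex spheroids of tumor cells with HUVEC and human MSCs, exposed to iadademstat combined with other agents. Each agent tested in half-log steps from near clinical Cmax (else 10 microM top), DMSO ≤0.25%.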

[1] = curve of first compound, second compound 0.1 µM
[2] = curve of first compound, second compound 0.316 µM
[3] = curve of first compound, second compound 1 µM
[4] = curve of first compound, second compound 3.16 µM
[5] = curve of first compound, second compound 10 µM
[6] = second compound 0.1 µM, first compound 0.0316 µM
[7] = second compound 0.1 µM, first compound 0.1 µM
[8] = second compound 0.316 µM, first compound 0.0316 µM
[9] = second compound 0.316 µM, first compound 0.1 µM
[10] = second compound 1 µM, first compound 0.0316 µM
[11] = second compound 1 µM, first compound 0.1 µM
[12] = second compound 3.16 µM, first compound 0.0316 µM
[13] = second compound 3.16 µM, first compound 0.1 µM
[14] = second compound 10 µM, first compound 0.0316 µM
[15] = second compound 10 µM, first compound 0.1 µM
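Note: spheroids exposed to agents for seven days before readout.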

`CC1COCCN1c1cc(C2(S(C)(=N)=O)CC2)nc(-c2ccnc3[nH]ccc23)n1` (centres undefined) + NC1CCC(NC2CC2c2ccccc2)CC1 was tested, and the IC50 [1] was 736 nM, the IC50 [2] was 832 nM and the IC50 [3] was 840 nM. The IC50 [4] was 674 nM, the IC50 [5] was 698 nM and the viability, T/C [6] was 104%. For the same compound, the viability, T/C [7] was 81.3%, the viability, T/C (second compound 0.1 µM, first compound 0.316 µM) was 63.7% and the viability, T/C (second compound 0.1 µM, first compound 1 µM) was 46.4%. For the same compound, the viability, T/C (second compound 0.1 µM, first compound 3.16 µM) was 32.8%, the viability, T/C (second compound 0.1 µM, first compound 10 µM) was 34.1% and the viability, T/C [8] was 94.1%. It also gave a viability, T/C [9] of 80.1%, a viability, T/C (second compound 0.316 µM, first compound 0.316 µM) of 73.8% and a viability, T/C (second compound 0.316 µM, first compound 1 µM) of 45.5%. The viability, T/C (second compound 0.316 µM, first compound 3.16 µM) was 30%, the viability, T/C (second compound 0.316 µM, first compound 10 µM) was 31% and the viability, T/C [10] was 102%. For the same compound, the viability, T/C [11] was 81%, the viability, T/C (second compound 1 µM, first compound 0.316 µM) was 67.4% and the viability, T/C (second compound 1 µM, first compound 1 µM) was 46.3%. For the same compound, the viability, T/C (second compound 1 µM, first compound 3.16 µM) was 34.1%, the viability, T/C (second compound 1 µM, first compound 10 µM) was 28.2% and the viability, T/C [12] was 101%. The viability, T/C [13] was 89.4%, the viability, T/C (second compound 3.16 µM, first compound 0.316 µM) was 68.9% and the viability, T/C (second compound 3.16 µM, first compound 1 µM) was 39.1%. It also gave a viability, T/C (second compound 3.16 µM, first compound 3.16 µM) of 33.6%, a viability, T/C (second compound 3.16 µM, first compound 10 µM) of 32.3% and a viability, T/C [14] of 103%. It also gave a viability, T/C [15] of 66.4%, a viability, T/C (second compound 10 µM, first compound 0.316 µM) of 72.5% and a viability, T/C (second compound 10 µM, first compound 1 µM) of 43.8%. The viability, T/C (second compound 10 µM, first compound 3.16 µM) was 30% and the viability, T/C (second compound 10 µM, first compound 10 µM) was 27.4%.

`NS(=O)(=O)OCC1CC(n2ccc3c(NC4CCc5ccccc54)ncnc32)CC1O` (centres undefined) was tested, and the viability, T/C (compound 0.00949 µM) was 115% and 114%, the viability, T/C (compound 0.03 µM) was 98.1% and 121% and the viability, T/C (compound 0.0949 µM) was 91.9% and 121%. The viability, T/C (compound 0.3 µM) was 99.7% and 70.9%, the viability, T/C (compound 0.949 µM) was 54.7% and 62.8% and the viability, T/C (compound 3 µM) was 55.3% and 60%. For the same compound, the IC50 (curve of compound) was greater than 3000 nM.

For `CC1COCCN1c1cc(C2(S(C)(=N)=O)CC2)nc(-c2ccnc3[nH]ccc23)n1` (centres undefined), the viability, T/C (compound 0.0316 µM) was 107% and 106%, the viability, T/C (compound 0.1 µM) was 85.1% and 117% and the viability, T/C (compound 0.316 µM) was 79.9% and 107%. The viability, T/C (compound 1 µM) was 57.8% and 84.8%, the viability, T/C (compound 3.16 µM) was 38.3% and 58.8% and the viability, T/C (compound 10 µM) was 37.8% and 56.7%. The IC50 (curve of compound) was 1810 nM and > 10000 nM.

For `Cn1ncnc1C1c2n[nH]c(=O)c3cc(F)cc(c23)NC1c1ccc(F)cc1` (centres undefined) + NC1CC1c1ccc(-c2cccc(O)c2)cc1, the IC50 [1] was greater than 100 nM, the IC50 [2] was greater than 100 nM and the IC50 [3] was greater than 100 nM. The IC50 [4] was greater than 100 nM, the IC50 [5] was greater than 100 nM and the viability, T/C (second compound 0.1 µM, first compound 0.000316 µM) was 90.3%. For the same compound, the viability, T/C (second compound 0.1 µM, first compound 0.001 µM) was 95.9%, the viability, T/C (second compound 0.1 µM, first compound 0.00316 µM) was 95% and the viability, T/C (second compound 0.1 µM, first compound 0.01 µM) was 90.7%. For the same compound, the viability, T/C [6] was 84.6%, the viability, T/C [7] was 83.4% and the viability, T/C (second compound 0.316 µM, first compound 0.000316 µM) was 92.2%. For the same compound, the viability, T/C (second compound 0.316 µM, first compound 0.001 µM) was 96.2%, the viability, T/C (second compound 0.316 µM, first compound 0.00316 µM) was 101% and the viability, T/C (second compound 0.316 µM, first compound 0.01 µM) was 91.4%. It also gave a viability, T/C [8] of 82.2%, a viability, T/C [9] of 80% and a viability, T/C (second compound 1 µM, first compound 0.000316 µM) of 90%. The viability, T/C (second compound 1 µM, first compound 0.001 µM) was 97.4%, the viability, T/C (second compound 1 µM, first compound 0.00316 µM) was 99.8% and the viability, T/C (second compound 1 µM, first compound 0.01 µM) was 90.6%. It also gave a viability, T/C [10] of 75.9%, a viability, T/C [11] of 82.6% and a viability, T/C (second compound 3.16 µM, first compound 0.000316 µM) of 89.7%. The viability, T/C (second compound 3.16 µM, first compound 0.001 µM) was 94.4%, the viability, T/C (second compound 3.16 µM, first compound 0.00316 µM) was 90.3% and the viability, T/C (second compound 3.16 µM, first compound 0.01 µM) was 85.1%. The viability, T/C [12] was 82.7%, the viability, T/C [13] was 80% and the viability, T/C (second compound 10 µM, first compound 0.000316 µM) was 85.5%. It also gave a viability, T/C (second compound 10 µM, first compound 0.001 µM) of 88.3%, a viability, T/C (second compound 10 µM, first compound 0.00316 µM) of 94.8% and a viability, T/C (second compound 10 µM, first compound 0.01 µM) of 86.3%. The viability, T/C [14] was 82.5% and the viability, T/C [15] was 78.6%.
